In the CheMixHub ionic liquid set:
± gives the uncertainty stated by the source.

Test: xn = mol fraction of the nth substance listed

C[N+](C)(C)Cc1ccccc1.[Cl-] + O=C([O-])C1=NN(c2ccc(S(=O)(=O)[O-])cc2)C(=O)C1N=Nc1ccc(S(=O)(=O)[O-])cc1.[Na+].[Na+].[Na+] + O
electrical conductivity [S/m], 101.3 kPa, frequency 0.001 MHz
Conditions | 298.15 K | 308.15 K | 318.15 K
x2 = 0, x1 = 1.802e-05 | 0.0137 ± 0.0052 | 0.0183 ± 0.0062 | 0.0233 ± 0.0077
x2 = 0, x1 = 5.406e-05 | 0.0295 ± 0.0056 | 0.0398 ± 0.0071 | 0.0456 ± 0.0084
x2 = 0, x1 = 9.009e-05 | 0.0457 ± 0.0069 | 0.0565 ± 0.0079 | 0.0643 ± 0.0094

viscosity [mPa·s], 101.3 kPa
Conditions | 298.15 K | 308.15 K | 318.15 K
x2 = 0, x1 = 1.802e-05 | 0.88 ± 0.045 | 0.726 ± 0.044 | 0.611 ± 0.044
x2 = 0, x1 = 5.406e-05 | 0.897 ± 0.045 | 0.747 ± 0.044 | 0.627 ± 0.044
x2 = 0, x1 = 9.009e-05 | 0.914 ± 0.045 | 0.766 ± 0.045 | 0.646 ± 0.044

CC(=O)[O-].CCCCC[N+](CCCCC)(CCCCC)CCCCC + CCCCCCCCCCCC[N+](C)(C)C.[Br-] + O
viscosity [mPa·s], 100 kPa
Conditions | x2 = 5.424e-05, x1 = 0.0001802 | x2 = 0.0001085, x1 = 0.0001801 | x2 = 0.0001627, x1 = 0.0001801 | x2 = 0.0002169, x1 = 0.0001801 | x2 = 0.0002711, x1 = 0.0001801 | x2 = 0.0003254, x1 = 0.0001801 | x2 = 0.0003796, x1 = 0.0001801 | x2 = 0.0004338, x1 = 0.0001801 | x2 = 0.000488, x1 = 0.0001801 | x2 = 0.0005421, x1 = 0.0001801
293.15 K | 1.029 ± 0.029 | 1.031 ± 0.029 | 1.033 ± 0.029 | 1.034 ± 0.029 | 1.034 ± 0.029 | 1.035 ± 0.029 | 1.035 ± 0.029 | 1.036 ± 0.029 | 1.036 ± 0.029 | 1.036 ± 0.029
298.15 K | 0.921 ± 0.029 | 0.924 ± 0.029 | 0.928 ± 0.029 | 0.928 ± 0.029 | 0.929 ± 0.029 | 0.929 ± 0.029 | 0.93 ± 0.029 | 0.93 ± 0.029 | 0.931 ± 0.029 | 0.931 ± 0.029
303.15 K | 0.811 ± 0.028 | 0.813 ± 0.028 | 0.816 ± 0.028 | 0.819 ± 0.028 | 0.822 ± 0.028 | 0.825 ± 0.028 | 0.825 ± 0.028 | 0.828 ± 0.028 | 0.829 ± 0.028 | 0.83 ± 0.028
308.15 K | 0.728 ± 0.028 | 0.731 ± 0.028 | 0.731 ± 0.028 | 0.733 ± 0.028 | 0.734 ± 0.028 | 0.737 ± 0.028 | 0.741 ± 0.028 | 0.745 ± 0.028 | 0.746 ± 0.028 | 0.749 ± 0.028
313.15 K | 0.659 ± 0.027 | 0.661 ± 0.027 | 0.664 ± 0.027 | 0.666 ± 0.027 | 0.667 ± 0.028 | 0.669 ± 0.028 | 0.669 ± 0.028 | 0.67 ± 0.028 | 0.671 ± 0.028 | 0.671 ± 0.028
318.15 K | 0.609 ± 0.027 | 0.609 ± 0.027 | 0.611 ± 0.027 | 0.612 ± 0.027 | 0.613 ± 0.027 | 0.615 ± 0.027 | 0.615 ± 0.027 | 0.619 ± 0.027 | 0.62 ± 0.027 | 0.621 ± 0.027

CO + CC[n+]1ccn(C)c1.F[B-](F)(F)F
101 kPa, x2 = 0
Conditions | viscosity [mPa·s]
303.15 K | 0.504 ± 0.051
313.15 K | 0.442 ± 0.044
323.15 K | 0.39 ± 0.039
333.15 K | 0.344 ± 0.034

CCC(=O)[O-].COCCn1cc[n+](C)c1 + O
100 kPa
Conditions | electrical conductivity [S/m] | viscosity [mPa·s]
288.15 K, x1 = 0.8302 | 0.318 ± 0.02 | 81.8 ± 1.4
288.15 K, x1 = 0.8877 | 0.241 ± 0.02 | 96.6 ± 2.2
288.15 K, x1 = 1 | 0.109 ± 0.02 | 125.5 ± 3.9
293.15 K, x1 = 0.9474 | 0.222 ± 0.02 | 84.9 ± 1.6
298.15 K, x1 = 0.8302 | 0.426 ± 0.02 | 46.94 ± 0.55
298.15 K, x1 = 0.9474 | 0.285 ± 0.02 | 63.84 ± 0.71
298.15 K, x1 = 1 | 0.228 ± 0.02 | 70.11 ± 0.86
303.15 K, x1 = 0.8579 | 0.483 ± 0.02 | 39.8 ± 0.53
313.15 K, x1 = 0.9474 | 0.588 ± 0.02 | 31.35 ± 0.48
318.15 K, x1 = 0.8579 | 0.839 ± 0.02 | 20 ± 0.44
318.15 K, x1 = 0.9474 | 0.726 ± 0.02 | 24.42 ± 0.45

CC[n+]1ccn(C)c1.F[B-](F)(F)F + CC#N
Conditions | viscosity [mPa·s]
293.15 K, 100 kPa, x2 = 0.1787 | 25.2 ± 2.5
298.15 K, 100 kPa, x2 = 0.8301 | 1.14 ± 0.12
303.15 K, 101 kPa, x1 = 0.0999 | 0.71 ± 0.071
303.15 K, 101 kPa, x1 = 0.2 | 1.31 ± 0.13
303.15 K, 101 kPa, x1 = 0.2977 | 2.18 ± 0.22
303.15 K, 101 kPa, x1 = 0.3999 | 3.51 ± 0.35
303.15 K, 101 kPa, x1 = 0.4999 | 5.29 ± 0.53
303.15 K, 101 kPa, x1 = 0.5991 | 7.84 ± 0.79
303.15 K, 101 kPa, x1 = 0.7013 | 11 ± 1.1
303.15 K, 101 kPa, x1 = 0.8003 | 15.3 ± 1.5
303.15 K, 101 kPa, x1 = 0.9009 | 21 ± 2.1
303.15 K, 101 kPa, x1 = 1 | 28 ± 2.8
313.15 K, 100 kPa, x2 = 0.2803 | 10.5 ± 1.1
313.15 K, 100 kPa, x2 = 0.3682 | 7.5 ± 0.75
313.15 K, 101 kPa, x1 = 0.0999 | 0.638 ± 0.064
313.15 K, 101 kPa, x1 = 0.2 | 1.15 ± 0.12
313.15 K, 101 kPa, x1 = 0.2977 | 1.89 ± 0.19
313.15 K, 101 kPa, x1 = 0.3999 | 2.95 ± 0.3
313.15 K, 101 kPa, x1 = 0.4999 | 4.34 ± 0.44
313.15 K, 101 kPa, x1 = 0.5991 | 6.21 ± 0.62
313.15 K, 101 kPa, x1 = 0.7013 | 8.64 ± 0.87
313.15 K, 101 kPa, x1 = 0.8003 | 11.7 ± 1.2
313.15 K, 101 kPa, x1 = 0.9009 | 15.6 ± 1.6
313.15 K, 101 kPa, x1 = 1 | 20.4 ± 2.1
323.15 K, 100 kPa, x2 = 0 | 18.6 ± 1.9
323.15 K, 100 kPa, x2 = 0.2803 | 8.36 ± 0.84
323.15 K, 100 kPa, x2 = 0.3682 | 6.1 ± 0.61
323.15 K, 100 kPa, x2 = 0.7116 | 1.6 ± 0.16
323.15 K, 101 kPa, x1 = 0.0999 | 0.575 ± 0.058
323.15 K, 101 kPa, x1 = 0.2 | 1.02 ± 0.1
323.15 K, 101 kPa, x1 = 0.2977 | 1.67 ± 0.17
323.15 K, 101 kPa, x1 = 0.3999 | 2.52 ± 0.25
323.15 K, 101 kPa, x1 = 0.4999 | 3.64 ± 0.36
323.15 K, 101 kPa, x1 = 0.5991 | 5.11 ± 0.51
323.15 K, 101 kPa, x1 = 0.7013 | 6.95 ± 0.7
323.15 K, 101 kPa, x1 = 0.8003 | 9.17 ± 0.92
323.15 K, 101 kPa, x1 = 0.9009 | 12 ± 1.2
323.15 K, 101 kPa, x1 = 1 | 15.3 ± 1.5
333.15 K, 100 kPa, x2 = 0.2803 | 6.82 ± 0.69
333.15 K, 100 kPa, x2 = 0.7116 | 1.41 ± 0.14
333.15 K, 101 kPa, x1 = 0.0999 | 0.522 ± 0.052
333.15 K, 101 kPa, x1 = 0.2 | 0.917 ± 0.092
333.15 K, 101 kPa, x1 = 0.2977 | 1.48 ± 0.15
333.15 K, 101 kPa, x1 = 0.3999 | 2.2 ± 0.22
333.15 K, 101 kPa, x1 = 0.4999 | 3.13 ± 0.31
333.15 K, 101 kPa, x1 = 0.5991 | 4.34 ± 0.44
333.15 K, 101 kPa, x1 = 0.7013 | 5.76 ± 0.58
333.15 K, 101 kPa, x1 = 0.8003 | 7.47 ± 0.75
333.15 K, 101 kPa, x1 = 0.9009 | 9.51 ± 0.96
333.15 K, 101 kPa, x1 = 1 | 12.1 ± 1.2
343.15 K, 100 kPa, x2 = 0.3682 | 4.28 ± 0.43
343.15 K, 100 kPa, x2 = 0.7116 | 1.26 ± 0.13
343.15 K, 100 kPa, x2 = 0.8301 | 0.719 ± 0.072
